Data from patent publication US20220380319A1 (Bial - R&D Investments, S.A., priority 2019, published 2022).
In brackets after ≈: the same amount, converted by molar mass.

Assays:
acid ceramidase = biological target: T1, acid ceramidase (Homo sapiens, UniProt Q13510); assay: Acid ceramidase inhibition, biochemical fluorescent assay with cell lysates overexpressing acid ceramidase, substrate Rbm14-12; conditions: substrate Rbm14-12 6.3 μM
T1 construct: Cell lysates overexpressing acid ceramidase were used as the enzyme source; expressed in transfected cells
T1 sequence (Q13510 22-395): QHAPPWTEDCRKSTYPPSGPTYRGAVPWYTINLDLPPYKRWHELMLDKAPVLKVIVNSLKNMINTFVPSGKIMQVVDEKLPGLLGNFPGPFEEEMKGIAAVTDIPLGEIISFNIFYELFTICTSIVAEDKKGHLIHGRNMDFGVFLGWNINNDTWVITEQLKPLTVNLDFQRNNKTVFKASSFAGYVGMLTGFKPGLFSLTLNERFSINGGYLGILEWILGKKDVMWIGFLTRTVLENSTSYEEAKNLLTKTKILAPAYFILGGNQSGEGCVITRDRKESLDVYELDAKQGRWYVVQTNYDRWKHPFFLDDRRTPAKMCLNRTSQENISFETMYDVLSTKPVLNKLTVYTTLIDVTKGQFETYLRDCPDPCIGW
In short: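 Lysate of cells overexpressing acid ceramidase (10 μg protein) preincubated with compound dose series 1 hr at RT in 25 mM NaAC, 100 mM NaCl, pH 4.5, then reacted 1 hr with 6.3 μM Rbm14-12. Stopped with NaIO4/glycine buffer pH 10.6, fluorescence ex360/em446; IC50 by four-parameter fit.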

[1] = Compound solubility in water
[2] = pH 4.5, 1 hr preincubation at RT

Row | IC50 (acid ceramidase; pH 4.5) [nM] | solubility [1] [µg/mL] | IC50 (acid ceramidase; [2]) [nM] | SMILES
1 | < 200 | 0.2 (≈ 0.497 µM) |  | O=C(NCCCc1ccccc1)n1cnc2c(N3CC(C(F)(F)F)C3)cccc21 [Example 273, N-(3-Phenylpropyl)-4-(3-(trifluoromethyl)azetidin-1-yl)-1H-benzo[d]imidazole-1-carboxamide]
2 |  | 14.1 (≈ 46.5 µM) | > 1000 | CCOc1nc2c(OC)cccc2n1C(=O)NCCC1CC1 [Example 116, N-(2-Cyclopropylethyl)-2-ethoxy-4-methoxy-1H-benzo[d]imidazole-1-carboxamide]
3 | < 200 | 28 (≈ 64.7 µM) |  | CN1CCN(C2CN(c3cccc4c3ncn4C(=O)NCCCc3ccccc3)C2)CC1 [Example 276, 4-(3-(4-Methylpiperazin-1-yl)azetidin-1-yl)-N-(3-phenylpropyl)-1H-benzo[d]imidazole-1-carboxamide]
4 |  | 6 (≈ 17.6 µM) | 200 to 1000 | CSc1nc2cc(-c3cccnc3)cnc2n1C(=O)NCC(C)C [Example 125]
5 | < 200 | 18 (≈ 43.2 µM) |  | N#CCCN1CCN(c2cccc3c2ncn3C(=O)NCCCc2ccccc2)CC1 [Example 278, 4-(4-(2-Cyanoethyl)piperazin-1-yl)-N-(3-phenylpropyl)-1H-benzo[d]imidazole-1-carboxamide]
6 | 200 to 1000 | 17 (≈ 51.4 µM) |  | CC(C)CCNC(=O)n1cnc2c(N3CCCOCC3)cccc21 [Example 173, N-iso-Pentyl-4-(1,4-oxazepan-4-yl)-1H-benzo[d]imidazole-1-carboxamide]
7 |  | 23.5 (≈ 62.1 µM) | < 200 | CN1CCC(c2cccc3c2ncn3C(=O)NCCOc2ccccc2)CC1 [Example 45, 4-(1-Methylpiperidin-4-yl)-N-(2-phenoxyethyl)-1H-benzo[d]imidazole-1-carboxamide]
8 | < 200 | 22 (≈ 59.2 µM) |  | CC(C)C#CCNC(=O)n1cnc2c(N3CCN(CCF)CC3)cccc21 [Example 309, 4-(4-(2-Fluoroethyl)piperazin-1-yl)-N-(4-methylpent-2-yn-1-yl)-1H-benzo[d]imidazole-1-carboxamide]
9 | < 200 | 26 (≈ 74.8 µM) |  | COc1nc2c(N3CCOCC3)cncc2n1C(=O)NCCC(C)C [Example 211, N-iso-Pentyl-2-methoxy-7-morpholino-3H-imidazo[4,5-c]pyridine-3-carboxamide]
10 | < 200 | 7 (≈ 17.6 µM) |  | CC(=O)N1CCN(c2cccc3c2ncn3C(=O)NCC2(CC(C)C)CC2)CC1 [Example 222, 4-(4-Acetylpiperazin-1-yl)-N-((1-iso-butyl-cyclopropyl)methyl)-1H-benzo[d]imidazole-1-carboxamide]
11 |  | 18.3 (≈ 62 µM) | < 200 | CC(C)CNC(=O)n1cnc2ccc(-c3cncnc3)cc21 [Example 16b, N-iso-Butyl-6-(pyrimidin-5-yl)-1H-benzo[d]imidazole-1-carboxamide]
12 |  | 9.3 (≈ 30.9 µM) | < 200 | CCCCNC(=O)n1cnc2ccc(OC(F)(F)F)cc21 [Example 70a, N-Butyl-6-(trifluoromethoxy)-1H-benzo[d]imidazole-1-carboxamide]
13 | > 1000 | 39 (≈ 95.9 µM) |  | COc1nc2ccc(C3CCN(C)CC3)cc2n1C(=O)NCCCc1ccccc1 [Example 195b, 2-methoxy-6-(1-methylpiperidin-4-yl)-N-(3-phenylpropyl)-1H-benzo[d]imidazole-1-carboxamide]

Row | SMILES | IC50 (acid ceramidase; pH 4.5) [nM] | solubility [1] [µg/mL] | IC50 (acid ceramidase; [2]) [nM]
14 | COc1nc2cc(N3[C@@H]4CC[C@H]3COC4)ccc2n1C(=O)NCCCc1ccccc1 [Example 237a, 5-((1R,5S)-3-Oxa-8-azabicyclo[3.2.1]octan-8-yl)-2-methoxy-N-(3-phenylpropyl)-1H-benzo[d]imidazole-1-carboxamide] | < 200 | 1 (≈ 2.38 µM) | 
15 | CC(C)CCNC(=O)n1cnc2c(N3CCC4(CC3)COC4)cccc21 [Example 175, N-iso-Pentyl-4-(2-oxa-7-azaspiro[3.5]nonan-7-yl)-1H-benzo[d]imidazole-1-carboxamide] | 200 to 1000 | 18 (≈ 50.5 µM) | 
